This note sets out measurements from US20020009508A1, “Echinacea extract as anti-irritant and anti-aging booster in cosmetic compositions” (priority 2000, published 2002).

The test system of the assay is IL-1a-induced PGE2 in neonatal human dermal fibroblasts. In words: Inhibition of IL-1a-induced PGE2 production in fibroblasts (PGE2 enzyme immunoassay). It counts as cell-based. As for the experimental part: Neonatal human dermal fibroblasts (passage 5-9) were seeded at a density of 7500 cells per well in 96-well tissue culture treated plates (Corning-Costar, Corning, N.Y.). The medium used was Dulbecco's Modified Eagle's Medium (DMEM), high-glucose (Gibco/Life Technologies, Gaithersburg, Md.) supplemented with 2 mM L-glutamine, 10% fetal bovine serum, and antibiotic and anti mycotic solutions (all also Life Technologies). After 48 hours, each well was rinsed twice with 200 μl serum-free DMEM and the cells dosed with 200 μl in DMEM+L-glutamine containing IL-1α at 1 ng/ml +/− active. […]
Enzyme immunoassay was performed using a commercial PGE2 kit (Amersham, Buckinghamshire, England). […] The assay is based on the competition between unlabelled PGE2 (standard or sample) and a fixed quantity of peroxidase labelled PGE2 for a limited amount of the well-bound PGE2-specific antibody. […] The Dynatech MR7000 microplate spectrophotometer (Dynatech, Chantilly, Va.) was used to quantitate color in the wells by reading absorbance at 450 nm. […]
The antiinflammatory potential of the test compounds is assessed by the ability of the compound to inhibit IL-1a-induced PGE2 and is expressed as the ratio of PGE2 produced by the cells treated with the test compound +IL-1a to PGE2 produced by the cells treated with IL-1a alone. […] Statistical significance was determined using the student's t-test.

In the case of Chicoric acid, the “Ratio of PGE2 with echinacea + IL-1a/IL-1a” value (Table 1b, concentration 0.001%) worked out at 0.02. For the same substance, for the setting “at 0.001%”, the “Effectiveness in the PGE2 test (in words)” value is recorded as “effective”.
